ChEMBL document CHEMBL4622979, “Non-rigid Diarylmethyl Analogs of Baloxavir as Cap-Dependent Endonuclease Inhibitors of Influenza Viruses” (J Med Chem, 2020)

Columns and labels:
[1] = Cmax in CD1 mouse plasma assessed as (12aR)-12-[(S)-(3,4-Difluorophenyl)(phenyl)methyl]-7-hydroxy3,4,12,12a-tetrahydro-1H-[1,4]oxazino[3,4-c]pyrido[2,1-f ][1,2,4]triazine-6,8-dione level at 15 mg/kg, po administered as single dose by LC-MS/MS analysis; assay type: ADME, organism-based; design: dose 15 mg/kg, route oral; conditions: in vivo
[2] = Ratio of AUClast in CD1 mouse lung to plasma assessed as (12aR)-12-[(S)-(3,4-Difluorophenyl)(phenyl)methyl]-7-hydroxy3,4,12,12a-tetrahydro-1H-[1,4]oxazino[3,4-c]pyrido[2,1-f ][1,2,4]triazine-6,8-dione level at 15 mg/kg, po administered as single dose by LC-MS/MS analysis; assay type: ADME, organism-based; conditions: other tissue
[3] = Stability in simulated gastric fluid assessed as parent compound remaining at 1 uM measured after 4 hrs at pH 1.2 by LC-MS/MS analysis; assay type: physicochemical; conditions: read-out: Stability
[4] = Ratio of Cmax in CD1 mouse lung to plasma assessed as (12aR)-12-[(S)-(3,4-Difluorophenyl)(phenyl)methyl]-7-hydroxy3,4,12,12a-tetrahydro-1H-[1,4]oxazino[3,4-c]pyrido[2,1-f ][1,2,4]triazine-6,8-dione level at 15 mg/kg, po administered as single dose by LC-MS/MS analysis; assay type: ADME, organism-based; conditions: other tissue
[5] = AUClast in CD1 mouse plasma assessed as (12aR)-12-[(S)-(3,4-Difluorophenyl)(phenyl)methyl]-7-hydroxy3,4,12,12a-tetrahydro-1H-[1,4]oxazino[3,4-c]pyrido[2,1-f ][1,2,4]triazine-6,8-dione level at 15 mg/kg, po administered as single dose by LC-MS/MS analysis; assay type: ADME, organism-based; design: dose 15 mg/kg, route oral, time 0 - last; conditions: in vivo
[6] = Oral bioavailability in CD1 mouse assessed as (12aR)-12-[(S)-(3,4-Difluorophenyl)(phenyl)methyl]-7-hydroxy3,4,12,12a-tetrahydro-1H-[1,4]oxazino[3,4-c]pyrido[2,1-f ][1,2,4]triazine-6,8-dione level at 15 mg/kg administered as single dose by LC-MS/MS analysis; assay type: ADME, organism-based; conditions: in vivo
[7] = AUClast in CD1 mouse lung assessed as (12aR)-12-[(S)-(3,4-Difluorophenyl)(phenyl)methyl]-7-hydroxy3,4,12,12a-tetrahydro-1H-[1,4]oxazino[3,4-c]pyrido[2,1-f ][1,2,4]triazine-6,8-dione level at 15 mg/kg, po administered as single dose by LC-MS/MS analysis; assay type: ADME, organism-based; conditions: in vivo
[8] = Stability in simulated intestinal fluid assessed as parent compound remaining at 1 uM measured after 4 hrs at pH 1.2 by LC-MS/MS analysis; assay type: physicochemical; conditions: read-out: Stability
[9] = Cmax in CD1 mouse lung assessed as (12aR)-12-[(S)-(3,4-Difluorophenyl)(phenyl)methyl]-7-hydroxy3,4,12,12a-tetrahydro-1H-[1,4]oxazino[3,4-c]pyrido[2,1-f ][1,2,4]triazine-6,8-dione level at 15 mg/kg, po administered as single dose by LC-MS/MS analysis; assay type: ADME, organism-based; design: dose 15 mg/kg, route oral; conditions: in vivo
[10] = Cmax in CD1 mouse lung assessed as (12aR)-12-[(R)-(3,4-Difluorophenyl)(phenyl)methyl]-7-hydroxy3,4,12,12a-tetrahydro-1H-[1,4]oxazino[3,4-c]pyrido[2,1-f ][1,2,4]-triazine-6,8-dione level at 15 mg/kg, po administered as single dose by LC-MS/MS analysis; assay type: ADME, organism-based; design: dose 15 mg/kg, route oral; conditions: in vivo
[11] = Cmax in CD1 mouse plasma assessed as (12aR)-12-[(R)-(3,4-Difluorophenyl)(phenyl)methyl]-7-hydroxy3,4,12,12a-tetrahydro-1H-[1,4]oxazino[3,4-c]pyrido[2,1-f ][1,2,4]-triazine-6,8-dione level at 15 mg/kg, po administered as single dose by LC-MS/MS analysis; assay type: ADME, organism-based; design: dose 15 mg/kg, route oral; conditions: in vivo
[12] = AUClast in CD1 mouse plasma assessed as (12aR)-12-[(R)-(3,4-Difluorophenyl)(phenyl)methyl]-7-hydroxy3,4,12,12a-tetrahydro-1H-[1,4]oxazino[3,4-c]pyrido[2,1-f ][1,2,4]-triazine-6,8-dione level at 15 mg/kg, po administered as single dose by LC-MS/MS analysis; assay type: ADME, organism-based; design: dose 15 mg/kg, route oral, time 0 - last; conditions: in vivo
[13] = Oral bioavailability in CD1 mouse assessed as (12aR)-12-[(R)-(3,4-Difluorophenyl)(phenyl)methyl]-7-hydroxy3,4,12,12a-tetrahydro-1H-[1,4]oxazino[3,4-c]pyrido[2,1-f ][1,2,4]-triazine-6,8-dione level at 15 mg/kg administered as single dose by LC-MS/MS analysis; assay type: ADME, organism-based; conditions: in vivo
[14] = Ratio of AUClast in CD1 mouse lung to plasma assessed as (12aR)-12-[(R)-(3,4-Difluorophenyl)(phenyl)methyl]-7-hydroxy3,4,12,12a-tetrahydro-1H-[1,4]oxazino[3,4-c]pyrido[2,1-f ][1,2,4]-triazine-6,8-dione level at 15 mg/kg, po administered as single dose by LC-MS/MS analysis; assay type: ADME, organism-based; conditions: other tissue
[15] = AUClast in CD1 mouse lung assessed as (12aR)-12-[(R)-(3,4-Difluorophenyl)(phenyl)methyl]-7-hydroxy3,4,12,12a-tetrahydro-1H-[1,4]oxazino[3,4-c]pyrido[2,1-f ][1,2,4]-triazine-6,8-dione level at 15 mg/kg, po administered as single dose by LC-MS/MS analysis; assay type: ADME, organism-based; conditions: in vivo
[16] = Ratio of Cmax in CD1 mouse lung to plasma assessed as (12aR)-12-[(R)-(3,4-Difluorophenyl)(phenyl)methyl]-7-hydroxy3,4,12,12a-tetrahydro-1H-[1,4]oxazino[3,4-c]pyrido[2,1-f ][1,2,4]-triazine-6,8-dione level at 15 mg/kg, po administered as single dose by LC-MS/MS analysis; assay type: ADME, organism-based; conditions: other tissue

Row | SMILES | Cmax [1] [ng/mL] | Ratio AUC [2] | remaining at 4 h, 1 µM [3] [%] | Ratio [4] | AUClast [5] [ng·h/mL] | F [6] [%] | AUClast [7] [ng·h/g] | remaining at 4 h, 1 µM [8] [%] | Cmax [9] [ng/g] | Cmax [10] [ng/g] | Cmax [11] [ng/mL] | AUClast [12] [ng·h/mL] | F [13] [%] | Ratio AUC [14] | AUClast [15] [ng·h/g] | Ratio [16]
1 | COC(=O)OCOc1c2n(ccc1=O)N([C@@H](c1ccccc1)c1ccc(F)c(F)c1)[C@@H]1COCCN1C2=O | 397 | 4.2 | 97.7 | 3.7 | 2078 | 29.9 | 8806 | 95.8 | 1476 | – | – | – | – | – | – | –
2 | COC(=O)OCOc1c2n(ccc1=O)N([C@H](c1ccccc1)c1ccc(F)c(F)c1)[C@@H]1COCCN1C2=O | – | – | – | – | – | – | – | – | – | 4464 | 2090 | 9448 | 56.9 | 3.2 | 30130 | 2.1
